Positions of bridges follow the written chain, without caps; N, C: chain ends. Non-standard residues stand in square brackets, D forms with d. Residues, ends and D or L forms follow the SMILES beside them. Tic = O=C(O)[C@@H]1Cc2ccccc2CN1; Nle = CCCC[C@H](N)C(=O)O; Orn = NCCC[C@H](N)C(=O)O; Dab = NCC[C@H](N)C(=O)O; Dap = NC[C@H](N)C(=O)O

The subject of series [1] is plasmin. Nature of the series: Sensitivity to the tissue protease plasmin (HPLC). It counts as in vitro ADME. The conditions noted are these: 0.05 U plasmin, 37° C., 30 min, pH 7.5. The procedure: The sensitivity of peptides against the attack of various proteases of the digestive tract was determined in vitro using purified enzymes under suitable buffer conditions. In general, 10 μg of peptide were incubated in a 100 μl volume with 2 μg of protease at 37° C. for 30 min under the buffer conditions for the activity controls as stated by the manufacturer. After incubation and dilution with 300 μl of H2O, the mixtures were analyzed directly, without prepurification via a precolumn, by HPLC using a 20-60% gradient of H2O, 0.1% trifluoroacetic acid and acetonitrile, 0.1% trifluoroacetic acid.
Pepsin (Sigma, Deisenhofen, Germany) was incubated with peptides in 52 mM HCl. Incubations with trypsin (Sigma) were carried out in 63 mM sodium phosphate pH 7.6. Chymotrypsins α, β, γ,δ (ICN) were incubated in 50 mM CaCl2 and 40 mM Tris/HCl pH 7.8. This was followed by incubating with bacteriae proteinase K in unbuffered water. The positive control used was the *peptide cyclo[19,31]-uPA16-32 which corresponds to the original sequence of the uPA omega loop except for the cysteine bridge. The peptide sensitivity against the tissue protease plasmin (Sigma) was assayed in mixtures with 10 or 5 μg of peptides and 0.05 U of plasmin in 100 μl of 200 mM sodium phosphate pH 7.5 at 37° C. and a 30 min incubation period.
FIG. 5 depicts HPLC profiles of peptide variants prior to (top profiles) and after (bottom profiles) incubation with plasmin. Part (A) of the figure depicts the unaltered lead structure cyclo[21,29][D-Cys^21Cys^29]-uPA21-30 with lysine at position 23, (B) the ornithine-substituted variant cyclo[21,29][D-Cys^21Orn^23Cys^29]-uPA21-30, (C) the diaminobutyric acid-substituted variant cyclo[21,29][D-Cys^21Dab^23Cys^29]-uPA21-30, (D) the diaminopropionic acid-substituted variant cyclo[21,29][D-Cys^21Dap^23Cys^29]-uPA21-30, (E) the norleucine-substituted variant cyclo[21,29][D-Cys^21Nle^23Cys^29]-uPA21-30 and (F) the arginine-substituted variant cyclo[21,29][D-Cys^21Arg^23Cys^29]-uPA21-30. The protease plasmin appears in the bottom profiles in each case at approx. 17.5 min.

The nature of series [2]: Peptide stability in human serum (HPLC). It counts as in vitro ADME. The note with it: 37° C., 20.5 h. How it is done:
(§1) The stability of uPA-derived peptides in human serum or complete blood was assayed in vitro.
Human sera were prepared by allowing venous blood to coagulate without anti-coagulant in polypropylene tubes at 37° C. for 45 min. The clots adhering to the vessel wall were removed using a plastic stick and removed by centrifugation at 1200×g at room temperature for 12 min. The serum in the supernatant was removed and either used freshly for stability studies or frozen in aliquots at −20° C. for further use.
(§2) For stability studies in human complete blood, coagulation of venous blood was inhibited by heparin sodium (1 000 IU per 10 ml of complete blood), and the blood was used freshly. The peptides to be tested were added to the body fluids in the form of peptide-mixture stock solutions (≧1 μg per peptide in H2O) at a concentration of 5 μg/100 μl of serum or 200 μl of complete blood (per peptide) and incubated at 37° C. for various times. Prior to HPLC analysis, complete blood incubations were centrifuged at 16 000×g at room temperature for 5 min and the plasma in the supernatant was removed.
Sera and plasmas were prepurified via HLB precolumns (Waters GmbH, Oasis HLB extraction cartridge 1 cm^3/30 mg) prior to HPLC analysis. For this purpose, 100 μl of liquid were diluted with PBS to 1 ml and applied to said HLB precolumns equilibrated with 1 ml of 100% methanol and 1 ml of H2O. The columns were washed with 1ml of 5% methanol in H2O and eluted with 1 ml of 100% methanol. The first 200 μl (4 drops) of the eluate were discarded as void volume. The next 500 μl of eluate were diluted with 500 μl of PBS and analyzed by HPLC. […]
The stability of the peptides inhuman serum (FIG. 4a) was studied by adding a mixture of in each case 12.5 μg of the peptides to about 250 μl of serum. 100 μl thereof were diluted with PBS to 1 ml, prepurified on an HLB precolumn and analyzed immediately by HPLC (middle profile). A further 100 μl were analyzed after 20.5 h of incubation at 37° C. […] As a control, in each case 5 μg of the peptides were admixed with 1 ml of PBS and analyzed (top profile). […]

A short description of series [3]: Peptide stability in heparinized human complete blood (HPLC). It counts as in vitro ADME. The conditions noted are these: for stability in heparinized human blood: 37° C., 20.5 h, HPLC of plasma; for distribution between plasma and blood cells: heparinized human blood, peak integrals versus PBS control. The procedure:
as §1, §2
Sera and plasmas were prepurified via HLB precolumns (Waters GmbH, Oasis HLB extraction cartridge 1 cm^3/30 mg) prior to HPLC analysis. For this purpose, 100 μl of liquid were diluted with PBS to 1 ml and applied to said HLB precolumns equilibrated with 1 ml of 100% methanol and 1 ml of H2O. The columns were washed with 1ml of 5% methanol in H2O and eluted with 1 ml of 100% methanol. The first 200 μl (4 drops) of the eluate were discarded as void volume. The next 500 μl of eluate were diluted with 500 μl of PBS and analyzed by HPLC. The remaining 300 μl of the eluate were discarded. HPLC analysis was carried out using a YMC-5 C18 analytical column and a 20-60% gradient of H2O, 0.1% trifluoroacetic acid and acetonitrile, 0.1% trifluoroacetic acid over 30 min and detecting the analytes at 220 nm.
The stability in heparinized human blood (FIG. 4b) was studied by adding 750 μl of freshly prepared heparinized human blood to 37.5 μg of the peptides. Immediately thereafter, 375 μl were removed by centrifugation. 100 μl of the plasma supernatant were analyzed (middle profile). The remaining 375 μl were incubated with gentle agitation at 37° C. for 20.5 h and then analyzed (bottom profile). As a control, 5 μg of the peptides had already been admixed with 1 ml of PBS and analyzed (top profile).

The target in series [4] is T1, uPAR (Homo sapiens, UniProt Q03405).
T1 construct: human promyeloid cell line U937 as source for cellular native uPAR; endogenous in cells; host or cells: U937 cells stimulated with PMA
Nature of the series: Flow cytometry: inhibition of FITC-pro-uPA binding to uPAR on PMA-stimulated U937 cells. The conditions noted are these: for IC50: FIG. 1a, read-out: IC50 (inhibition of uPA/uPAR interaction) (converted); for affinity/activity for uPAR lower than that of ATF: relative to ATF. How it is done: The capacity of the synthetic peptides for inhibiting uPA/uPAR interaction was determined using the human promyeloid cell line U937 as source for cellular native uPAR by means of flow cytometry on a FACScan flow cytometer (Becton-Dickinson, Heidelberg, Germany) (Chuchulowski et al., Fibrinolysis 6, Suppl. 4 (1992), 95-102; Magdolen et al., (1996), supra). The U937 cells were stimulated with […] phorbol 12-myristate 13-acetate (PMA) for 48 h. After stimulation with PMA, the U937 cells express considerable amounts of cell surface-associated uPAR.
The stimulated cells were treated with 50 m glycine-HCl, 0.1 NaCl, pH 3.6 at room temperature for 1 min, in order to dissociate endogenous receptor-bound uPA. Subsequently, the acidic buffer was neutralized by 0.5 M HEPES, 100 mM NaCl, pH 7.5. The cells were then immediately washed twice with PBS/0.1% bovine serum albumin (BSA) and centrifuged at 300×g at room temperature for 10 min. The cells were resuspended in PBS/0.1% BSA, adjusted to a concentration of 10^6 cells per ml and incubated simultaneously with 1.6 ng of FITC-conjugated pro-uPA and different amounts of the synthetic peptides at room temperature for 45 min. Prior to analysis, propidium iodide, a fluorescent dye binding specifically double-stranded DNA, was added to each sample, in order to determine the viability of the analyzed U937 cells. Damaged, propidium iodide-labeled cells were excluded from the analysis.
Background: A flow cytometer gives signals particle by particle.

T1 sequence (Q03405 23-305): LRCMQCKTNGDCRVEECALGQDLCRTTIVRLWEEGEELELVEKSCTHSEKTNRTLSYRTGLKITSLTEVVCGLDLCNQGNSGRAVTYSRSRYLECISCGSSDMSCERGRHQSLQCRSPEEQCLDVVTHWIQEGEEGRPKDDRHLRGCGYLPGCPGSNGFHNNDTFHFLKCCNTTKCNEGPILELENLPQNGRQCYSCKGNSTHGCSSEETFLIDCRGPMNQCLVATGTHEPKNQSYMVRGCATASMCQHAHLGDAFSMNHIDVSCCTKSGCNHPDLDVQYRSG

Take `CC[C@H](C)[C@@H]1NC(=O)[C@H](CC(N)=O)NC(=O)[C@H](CO)NC(=O)[C@H](Cc2ccccc2)NC(=O)[C@H](Cc2ccc(O)cc2)NC(=O)[C@H](CCCN)NC(=O)[C@H](CC(N)=O)NC(=O)[C@H](N)CSSC[C@@H](C(=O)N[C@@H](Cc2c[nH]c3ccccc23)C(=O)O)NC1=O` [cyclo[21,29][D-Cys^21Orn^23Cys^29]-uPA21-30] (H-[dC]N[Orn]YFSNICW-OH; disulfide 1-9; N-terminus assumed): the stability against plasmin entry in series [1] is listed as “stable against plasmin”.
With `CC[C@H](C)[C@@H]1NC(=O)[C@H](CC(N)=O)NC(=O)[C@H](CO)NC(=O)[C@@H]2Cc3ccccc3CN2C(=O)[C@H](Cc2ccc(O)cc2)NC(=O)[C@H](CCCCN)NC(=O)[C@H](CC(N)=O)NC(=O)[C@H](N)CSSC[C@@H](C(=O)N[C@@H](Cc2c[nH]c3ccccc23)C(=O)O)NC1=O` [cyclo[21,29][D-Cys^21,Tic^25,Cys^29]-uPA21-30] (H-[dC]NKY[Tic]SNICW-OH; disulfide 1-9; N-terminus assumed), the “stability in human serum” value in series [2] was “unaltered”. In series [3], the “stability in heparinized human blood” value was “stable”; the “distribution between plasma and blood cells” value is “distributed mainly in the plasma”.
Turning to `CCCC[C@@H]1NC(=O)[C@H](CC(N)=O)NC(=O)[C@H](N)CSSC[C@@H](C(=O)N[C@@H](Cc2c[nH]c3ccccc23)C(=O)O)NC(=O)[C@H]([C@@H](C)CC)NC(=O)[C@H](CC(N)=O)NC(=O)[C@H](CO)NC(=O)[C@H](Cc2ccccc2)NC(=O)[C@H](Cc2ccc(O)cc2)NC1=O` [cyclo[21,29][D-Cys^21Nle^23Cys^29]-uPA21-30] (H-[dC]N[Nle]YFSNICW-OH; disulfide 1-9; N-terminus assumed), the stability against plasmin result in series [1] is given as “stable against plasmin”.
As for `CC[C@H](C)[C@@H]1NC(=O)[C@H](CC(N)=O)NC(=O)[C@H](CO)NC(=O)[C@H](Cc2ccccc2)NC(=O)[C@H](Cc2ccc(O)cc2)NC(=O)[C@H](CCCCN)NC(=O)[C@H](CC(N)=O)NC(=O)[C@@H](N)CSSC[C@@H](C(=O)N[C@@H](Cc2c[nH]c3ccccc23)C(=O)O)NC1=O` [cyclo[21,29][Cys^21,29]-uPA21-30, reference compound] (H-CNKYFSNICW-OH; disulfide 1-9; N-terminus and C-terminus assumed), in series [4], the IC50 was 2.26 µM and the “affinity/activity for uPAR lower than that of ATF” value is reported as “hundred-fold lower”.
Turning to `CC[C@H](C)[C@@H]1NC(=O)[C@H](CC(N)=O)NC(=O)[C@H](CO)NC(=O)[C@H](Cc2ccccc2)NC(=O)[C@H](Cc2ccc(O)cc2)NC(=O)[C@H](CN)NC(=O)[C@H](CC(N)=O)NC(=O)[C@H](N)CSSC[C@@H](C(=O)N[C@@H](Cc2c[nH]c3ccccc23)C(=O)O)NC1=O` [cyclo[21,29][D-Cys^21Dap^23Cys^29]-uPA21-30] (H-[dC]N[Dap]YFSNICW-OH; disulfide 1-9; N-terminus assumed), the stability against plasmin entry in series [1] is listed as “two small unidentified peaks appeared”.
As for “cyclo[19,31]-uPA16-32 [reference compound]”, the “stability in human serum” value in series [2] is “could no longer be detected”. Moreover, the “stability in heparinized human blood” value in series [3] was “instability”. The “part of the amount of peptide added degraded” value in series [3] (complete blood, 10-15 min between addition and prepurification) was more than 80%.
Regarding `CC[C@H](C)[C@@H]1NC(=O)[C@H](CC(N)=O)NC(=O)[C@H](CO)NC(=O)[C@H](Cc2ccccc2)NC(=O)[C@H](Cc2ccc(O)cc2)NC(=O)[C@H](CCN)NC(=O)[C@H](CC(N)=O)NC(=O)[C@H](N)CSSC[C@@H](C(=O)N[C@@H](Cc2c[nH]c3ccccc23)C(=O)O)NC1=O` [cyclo[21,29][D-Cys^21Dab^23Cys^29]-uPA21-30] (H-[dC]N[Dab]YFSNICW-OH; disulfide 1-9; N-terminus assumed), in series [1], the stability against plasmin entry is reported as “stable against plasmin”.
On to `CC[C@H](C)[C@@H]1NC(=O)[C@H](CC(N)=O)NC(=O)[C@H](CO)NC(=O)[C@H](Cc2ccccc2)NC(=O)[C@H](Cc2ccc(O)cc2)NC(=O)[C@H](CCCNC(=N)N)NC(=O)[C@H](CC(N)=O)NC(=O)[C@H](N)CSSC[C@@H](C(=O)N[C@@H](Cc2c[nH]c3ccccc23)C(=O)O)NC1=O` [cyclo[21,29][D-Cys^21Arg^23Cys^29]-uPA21-30] (H-[dC]NRYFSNICW-OH; disulfide 1-9; N-terminus assumed), for which the stability against plasmin result in series [1] is listed as “plasmin-sensitive”.
As for `CC[C@H](C)[C@@H]1NC(=O)[C@H](CC(N)=O)NC(=O)[C@H](CO)NC(=O)[C@H](Cc2ccccc2)NC(=O)[C@H](Cc2ccc(O)cc2)NC(=O)[C@H](CCCCN)NC(=O)[C@H](CC(N)=O)NC(=O)[C@H](N)CSSC[C@@H](C(=O)N[C@@H](Cc2c[nH]c3ccccc23)C(=O)O)NC1=O` [cyclo[21,29][D-Cys^21,Cys^29]uPA21-30] (H-[dC]NKYFSNICW-OH; disulfide 1-9; N-terminus and C-terminus assumed), in series [4], the IC50 was 0.078 µM and the “affinity/activity for uPAR lower than that of ATF” value was 4. In addition, in series [2], the “stability in human serum” value was “unaltered”. For the same compound, in series [3], the “stability in heparinized human blood” value is reported as “stable”; the “distribution between plasma and blood cells” value is listed as “distributed mainly in the plasma”. Also, in series [1], the stability against plasmin result is “a new unknown peak appeared”.

The values above are taken from patent publication US7314863B2, “Cyclic peptidomimetic urokinase receptor antagonists” (Wilex AG, priority 1999, dated 2008).
